Target: GST-tagged truncated human mutant G2019S LRRK2 (Homo sapiens, UniProt Q5S007, G2019S)
Test: LRRK2 G2019S Km ATP LanthaScreen assay
Assay type: biochemical
Conditions: 134 μM ATP (Km ATP), LRRKtide substrate, mean IC50 values; read-out: LRRK2 pIC50 (converted)
Experimental: Unless otherwise noted, all reactions are magnetically stirred. Unless otherwise noted, when diethyl ether is used in the experiments described below, it is Fisher ACS certified material and is stabilized with BHT. Unless otherwise noted, “concentrated” and/or “solvent removed under reduced pressure” means evaporating the solvent from a solution or mixture using a rotary evaporator or vacuum pump. Unless otherwise noted, flash chromatography is carried out on a Teledyne Isco (Lincoln, NE), Analogix (Burlington, WI), or Biotage (Stockholm, SWE) automated chromatography system using a commercially available cartridge as the column. Columns may be purchased from Teledyne Isco, Analogix, Biotage, Varian (Palo Alto, CA), or Supelco (Bellefonte, PA) and are usually filled with silica gel as the stationary phase. Reverse phase prep-HPLC conditions, where used, can be found at the end of each experimental section. Aqueous solutions were concentrated on a Genevac (Ipswich, ENG) or by freeze-drying/lyophilization. Unless otherwise noted, all LRRK2 pIC50 data presented in tables refers to the LRRK2 G2019S Km ATP LanthaScreen™ assay (Life Technologies Corp., Carlsbad, CA) that is described in the Biological Assay section.
The IC50 values reported herein were measured as follows.
Biological Assay: LRRK2 Km ATP LanthaScreen™ Assay
The LRRK2 kinase activity reported herein as IC50 values was determined with LanthaScreen™ technology from Life Technologies Corporation (Carlsbad, CA) using GST-tagged truncated human mutant G2019S LRRK2 in the presence of the fluorescein-labeled peptide substrate LRRKtide, also from Life Technologies. The data presented for the Km ATP LanthaScreen™ Assay represents mean IC50 values based on several test results and may have reasonable deviations depending on the specific conditions and reagents used. Assays were performed in the presence of 134 μM ATP (Km ATP). Upon completion, the assay was stopped and phosphorylated substrate detected with a terbium (Tb)-labeled anti-pERM antibody (cat. no. PV4898). The compound dose response was prepared by diluting a 10 mM stock of compound to a maximum concentration of 9.99 μM in 100% dimethylsulfoxide followed by custom fold serial dilution in dimethylsulfoxide nine times. Twenty nanoliters of each dilution was spotted via a Labcyte Echo onto a 384-well black-sided plate (Corning 3575) followed by 15 μl of a 1.25 nM enzyme solution in 1× assay buffer (50 mM Tris pH 8.5, 10 mM MgCl2, 0.01% Brij-35, 1 mM EGTA, 2 mM dithiothreitol, 0.05 mM sodium orthovanadate). Following a 15-minute incubation at room temperature, the kinase reaction was started with the addition of 5 μl of 400 nM fluorescein-labeled LRRKtide peptide substrate and 134 μM ATP solution in 1× assay buffer. The reaction was allowed to progress at ambient temperature for 90 minutes. The reaction was then stopped by the addition of 20 μl of TR-FRET Dilution Buffer (Life Technologies, Carlsbad, CA) containing 2 nM Tb-labeled anti-phospho LRRKtide antibody and 10 mM EDTA (Life Technologies, Carlsbad, CA). After an incubation of 1 hour at room temperature, the plate was read on an EnVision multimode plate reader (Perkin Elmer, Waltham, MA) with an excitation wavelength of 337 nm (Laser) and a reading emission at both 520 and 495 nm. Compound IC50s were interpolated from nonlinear regression best fits of the log of the final compound concentration, plotted as a function of the 520/495-nm emission ratio using Activity base. Abase uses a 4 parameter (4P) logistic fit based on the Levenberg-Marquardt algorithm.

| SMILES | IC50 |
| --- | --- |
| FC12CC(n3ncc(Nc4ncc5cc(Cl)c(N6CCNCC6)cc5n4)c3Cl)(C1)C2 [Ex-6.55, 6-chloro-N-(5-chloro-1-(3-fluorobicyclo[1.1.1]pentan-1-yl)-1H-pyrazol-4-yl)-7-(piperazin-1-yl)quinazolin-2-amine] | 2.11 nM |
| Cn1ncc(Nc2ncc3cc(Cl)c(N4CCN(C5(C)COC5)CC4)cc3n2)c1C(F)(F)F [Ex-4.15, 6-chloro-7-[4-(3-methyloxetan-3-yl)piperazin-1-yl]-N-[1-methyl-5-(trifluoromethyl)-1H-pyrazol-4-yl]quinazolin-2-amine] | 19.3 nM |
| CCn1ncc(Nc2ncc3ccc(N4C(=O)[C@H]5CC[C@@H]4C5)nc3n2)c1C (single isomer, unassigned) [Ex-15.4, (1S,4R) or (1R,4S)-2-{2-[(1-ethyl-5-methyl-1H-pyrazol-4-yl)amino]pyrido[2,3-d]pyrimidin-7-yl}-2-azabicyclo[2.2.1]heptan-3-one] | 12.5 nM |
| Cc1c(Nc2ncc3ccc(N4[C@H](C)CC[C@H]4C)cc3n2)cnn1CCF [Ex-1.12, (2R,5S or 2,5R)-7-[2,5-dimethylpyrrolidin-1-yl]-N-[1-(2-fluoroethyl)-5-methyl-1H-pyrazol-4-yl]quinazolin-2-amine] | 20.2 nM |
| O[C@H]1COCC12CCN(c1cc3nc(Nc4cnn(C5CC5)c4Cl)ncc3cc1Cl)CC2 [Ex-3.2] | 1.06 nM |
| OC[C@@H]1[C@H]2CN(c3cc4nc(Nc5cnn(CC(F)F)c5Cl)ncc4cc3Cl)C[C@@H]12 [Ex-1.19, [(1R,5S,6R)-3-(6-chloro-2-{[5-chloro-1-(2,2-difluoroethyl)-1H-pyrazol-4-yl]amino}quinazolin-7-yl)-3-azabicyclo[3.1.0]hexan-6-yl]methanol] | 4.87 nM |
| CC1(O)CC2(CN(c3cc4nc(Nc5cnn(C6CC6)c5Cl)ncc4cc3Cl)C2)C1 [Ex-4.28, 2-{6-chloro-2-[(5-chloro-1-cyclopropyl-1H-pyrazol-4-yl)amino]quinazolin-7-yl}-6-methyl-2-azaspiro[3.3]heptan-6-ol] | 1.05 nM |
| Cc1c(Nc2ncc3cc(Cl)c(N4CCN(C5COCC5O)CC4)cc3n2)cnn1C(C)(C)C#N (single isomer, unassigned) [Ex-6.21, (3S,4S) or (3R,4R) 2-[4-({6-chloro-7-[4-(4-hydroxyoxolan-3-yl)piperazin-1-yl]quinazolin-2-yl}amino)-5-methyl-1H-pyrazol-1-yl]-2-methylpropanenitrile] | 0.323 nM |
| CC1(n2ncc(Nc3ncc4cc(Cl)c(N5CCN(C6COC6)CC5)cc4n3)c2Cl)CC1 [Ex-3.22, 6-chloro-N-[5-chloro-1-(1-methylcyclopropyl)-1H-pyrazol-4-yl]-7-[4-(oxetan-3-yl)piperazin-1-yl]quinazolin-2-amine] | 0.954 nM |
| CC1(O)CCN(c2cc3nc(Nc4cnn(C5CC5)c4Cl)ncc3cc2Cl)C1 (stereo not shown) [Ex-1.38, 1-{6-chloro-2-[(5-chloro-1-cyclopropyl-1H-pyrazol-4-yl)amino]quinazolin-7-yl}-3-methylpyrrolidin-3-ol] | 9.77 nM |
| Cc1cc2cnc(Nc3cnn(C4CC4)c3Cl)nc2cc1N1CCN(C2(C)COC2)CC1 [Ex-5.10, N-(5-chloro-1-cyclopropyl-1H-pyrazol-4-yl)-6-methyl-7-[4-(3-methyloxetan-3-yl)piperazin-1-yl]quinazolin-2-amine] | 5.67 nM |
| Cc1c(Nc2cc3cc(N4CCN([C@]5(C)COC[C@@H]5O)CC4)c(Cl)cc3cn2)cnn1C1CC1 (single isomer, unassigned) [Ex-1.1, (3R,4R) or (3S,4S) 4-(4-(7-chloro-3-((1-cyclopropyl-5-methyl-1H-pyrazol-4-yl)amino)isoquinolin-6-yl)piperazin-1-yl)-4-methyltetrahydrofuran-3-ol] | 0.716 nM |
| Cc1cc2cnc(Nc3cnn(C)c3C)nc2cc1N1CCN(C2COCC2O)CC1 (single isomer, unassigned) [Ex-2.3, (3S,4S or 3R,4R)-4-(4-{2-[(1,5-dimethyl-1H-pyrazol-4-yl)amino]-6-methylquinazolin-7-yl}piperazin-1-yl)oxolan-3-ol] | 1.77 nM |
| Cc1c(Nc2ncc3ccc(N4C(=O)OC[C@H]4C)cc3n2)cnn1C1CCOCC1 [Ex-7.11, (4R)-4-methyl-3-(2-{[5-methyl-1-(oxan-4-yl)-1H-pyrazol-4-yl]amino}quinazolin-7-yl)-1,3-oxazolidin-2-one] | 9.35 nM |
| CC1(O)CCN(c2cc3nc(Nc4cnn(C5CC5)c4Cl)ncc3cc2C#N)CC1 [Ex-3.54, 2-[(5-chloro-1-cyclopropyl-1H-pyrazol-4-yl)amino]-7-(4-hydroxy-4-methylpiperidin-1-yl)quinazoline-6-carbonitrile] | 8.43 nM |
| CO[C@H]1CCN(c2cc3nc(Nc4cnn(C5(C)CC5)c4Cl)ncc3cc2Cl)C1 [Ex-4.40, 6-chloro-N-[5-chloro-1-(1-methylcyclopropyl)-1H-pyrazol-4-yl]-7-[(3S)-3-methoxypyrrolidin-1-yl]quinazolin-2-amine] | 15.2 nM |
| Cc1cc2cnc(Nc3cnn(C45CC(C4)C5)c3Cl)nc2cc1N1CCN(C2(C)COCC2O)CC1 (single isomer, unassigned) [Ex-13.5, (3S,4S) or (3R, 4R)-4-(4-(2-((1-(bicyclo[1.1.1]pentan-1-yl)-5-chloro-1H-pyrazol-4-yl)amino)-6-methylquinazolin-7-yl)piperazin-1-yl)-4-methyltetrahydrofuran-3-ol] | 9.89 nM |
| Cn1cc(Nc2ncc3ccc(N4C(=O)C5CCC4C5)cc3n2)c(C(F)(F)F)n1 (stereo not shown) [Ex-7.10, 2-(2-{[1-methyl-3-(trifluoromethyl)-1H-pyrazol-4-yl]amino}quinazolin-7-yl)-2-azabicyclo[2.2.1]heptan-3-one] | 5.14 nM |
| CNc1cc2nc(Nc3cnn(C4CCN(C5(C)COC5)CC4)c3Cl)ncc2cc1Cl [Ex-3.44, 6-chloro-N~2~-{5-chloro-1-[1-(3-methyloxetan-3-yl)piperidin-4-yl]-1H-pyrazol-4-yl}-N~7~-methyl-quinazoline-2,7-diamine] | 19.5 nM |
| Cc1cc2cnc(Nc3cnn(C45CC(C4)C5)c3C)nc2cc1N1CCN(C2(C)CCOC2)CC1 (single isomer, unassigned) [Ex-2.4, (3S,4S or 3R,4R)-N-(1-(bicyclo[1.1.1]pentan-1-yl)-5-methyl-1H-pyrazol-4-yl)-6-methyl-7-(4-(3-methyltetrahydrofuran-3-yl)piperazin-1-yl)quinazolin-2-amine] | 0.279 nM |
| Clc1cc2cnc(Nc3cnn(C4CC4)c3Cl)nc2cc1N1CCc2[nH]ncc2C1 [Ex-3.25, 6-chloro-N-(5-chloro-1-cyclopropyl-1H-pyrazol-4-yl)-7-(1,4,6,7-tetrahydro-5H-pyrazolo[4,3-c]pyridin-5-yl) quinazolin-2-amine] | 1.21 nM |
| CC1(n2ncc(Nc3ncc4cc(Cl)c(N5CCN(CCC#N)CC5)cc4n3)c2Cl)CC1 [Ex-3.20, 3-[4-(6-chloro-2-{[5-chloro-1-(1-methylcyclopropyl)-1H-pyrazol-4-yl]amino}quinazolin-7-yl)piperazin-1-yl]propanenitrile] | 1.07 nM |
| Cc1c(Nc2ncc3cc(Cl)c(N4CCN(C5COC(C)(C)C5)CC4)cc3n2)cnn1C1CC1 (single isomer, unassigned) [Ex-12.5, 6-chloro-N-(1-cyclopropyl-5-methyl-1H-pyrazol-4-yl)-7-(4-(5,5-dimethyltetrahydrofuran-3-yl)piperazin-1-yl)quinazolin-2-amine] | 0.56 nM |
| COC1CCC1n1ncc(Nc2ncc3cc(Cl)c(N4CCC(C)(O)CC4)cc3n2)c1C (single isomer, unassigned) [Ex-6.17, 1-[6-chloro-2-({1-[(1R,2S) or (1S,2R)-2-methoxycyclobutyl]-5-methyl-1H-pyrazol-4-yl}amino)quinazolin-7-yl]-4-methylpiperidin-4-ol] | 10.5 nM |
| CC1(N2CCN(c3cc4nc(Nc5cnn(C6CC(F)C6)c5Cl)ncc4cc3Cl)CC2)COC1 (stereo not shown) [Ex-3.21, 6-chloro-N-[5-chloro-1-(3-fluorocyclobutyl)-1H-pyrazol-4-yl]-7-[4-(3-methyloxetan-3-yl)piperazin-1-yl]quinazolin-2-amine] | 4.01 nM |

From US20230303540A1 (Merck Sharp & Dohme LLC, priority 2020, published 2023)
